{
  "source": "patent US20100028892A1",
  "about": "“YEAST BASED EXPRESSION OF PROTEASES AND METHODS OF USE” (Burnham Institute for Medical Research, priority 2008, published 2010)",
  "key": {"[1]": {"molecular_target": "T1, Caspase7 (Homo sapiens, UniProt P55210)", "T1 construct": "each full-length Caspase construct was expressed (for Caspases-1, 2, 3, 4, 5, 6, 7, and 9) at high levels; expressed in transfected cells; host or cells: Saccharomyces cerevisiae (EGY48)", "T1 sequence (P55210 1-303)": "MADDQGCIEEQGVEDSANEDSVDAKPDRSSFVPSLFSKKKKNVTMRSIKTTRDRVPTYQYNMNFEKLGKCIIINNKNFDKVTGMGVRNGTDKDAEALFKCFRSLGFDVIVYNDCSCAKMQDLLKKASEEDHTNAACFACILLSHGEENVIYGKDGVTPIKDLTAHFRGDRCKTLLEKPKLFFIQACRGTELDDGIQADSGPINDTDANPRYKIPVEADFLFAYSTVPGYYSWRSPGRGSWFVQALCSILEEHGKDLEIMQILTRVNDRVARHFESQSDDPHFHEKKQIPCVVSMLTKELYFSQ", "assay": "yeast 384 well β-galactosidase reporter assay, Caspase7", "type": "cell-based", "details": "Caspase7 in yeast, 384 well β-galactosidase activity assay", "from_the_text": "(§1) When converting the yeast-based protease reporter system to HTS assay, conditions from agar plates to liquid medium in microtiter wells must be revised. This revision comprises, utilizing the measured β-galactosidase produced by yeast carrying the Caspase-cleavable reporter proteins, and assaying the colorimetric product (OD620nm) derived from X-gal substrate in 384 well plates, as a measure of the lacZ reporter gene activity. We compared β-galactosidase activity produced in the presence or absence of the broad-spectrum caspase inhibitory compound, zVAD-fmk ([…]-Valinyl-Alaninyl-Aspartyl-fluoromethylketone). […] Note that it was determined that it is not advisible to employ glucose in yeast media because it represses the GAL1 promoter used in some plasmids. […]\n(§2) Yeast expressing various Caspases alone (at high levels) or in combination with upstream activators (at low levels) and cleavable substrates containing appropriate tetrapeptides reorganized by these proteases were used in 384 well β-galactosidase activity assays to assess inhibition by zVAD-fmk. The compound was titrated into assays at various concentrations and percentage inhibition was determined.\n(§3) Assays were performed in a total volume of […] in triplicate. […] Absorbance at 620 nm was measured 2-3 days after culture at 30° C."}, "[2]": {"system": "Caspases", "assay": "validation of 384 well yeast-based Caspase-dependent lacZ reporter gene assays with pharmacological inhibitors", "type": "cell-based, human", "from_the_text": "When converting the yeast-based protease reporter system to HTS assay, conditions from agar plates to liquid medium in microtiter wells must be revised. This revision comprises, utilizing the measured β-galactosidase produced by yeast carrying the Caspase-cleavable reporter proteins, and assaying the colorimetric product (OD620nm) derived from X-gal substrate in 384 well plates, as a measure of the lacZ reporter gene activity. We compared β-galactosidase activity produced in the presence or absence of the broad-spectrum caspase inhibitory compound, zVAD-fmk ([…]-Valinyl-Alaninyl-Aspartyl-fluoromethylketone). Among the variables that were initially interrogated were initial seeding cell density, time of culture, concentration of X-gal substrate, and supporting carbohydrate (raffinose vs mannose). Note that it was determined that it is not advisible to employ glucose in yeast media because it represses the GAL1 promoter used in some plasmids. An example of data obtained using the plural-component system of Fas/FADD/Caspase-8 is presented. All variables tested altered the signal:noise ratio of the assay. […] For the two-component system of ASC/Caspase-1 and for the plural-component system of NALP1ΔLRR/ASC/Caspase-1, the same conditions were optimal, among those tested (not shown). For the Fas/Fadd/Caspase 8, the caspase and adaptor protein (Fadd) were expressed at relatively small amounts (a weak promoter and low copy number plasmid are used) and the upstream activator (Fas) was expressed in a large amount.\nThe 384 well assay format was further validated, using zVAD-fmk, a peptidyl inhibitor with broad-spectrum activity against animal Caspases. […]\nThe validation results of a yeast-based Caspase assay using a pharmacological inhibitor of Caspases are shown in FIG. 11 consisting of FIGS. 11A-C (A) Caspase-1, single-component assay. […] For (A-C), relative absorbance at 620 nm was measured (mean ±std dev; n=3-5 independent experiments). […]\nas §3"}, "[3]": {"molecular_target": "T2, Caspase10 activated with FADD (Homo sapiens, UniProt Q92851)", "T2 construct": "a small amount of each full-length Caspase construct was expressed with a large amount of adaptor protein FADD; FLAG (C); expressed in transfected cells; host or cells: Saccharomyces cerevisiae EGY48", "T2 sequence (Q92851 1-479 isoform Q92851-2)": "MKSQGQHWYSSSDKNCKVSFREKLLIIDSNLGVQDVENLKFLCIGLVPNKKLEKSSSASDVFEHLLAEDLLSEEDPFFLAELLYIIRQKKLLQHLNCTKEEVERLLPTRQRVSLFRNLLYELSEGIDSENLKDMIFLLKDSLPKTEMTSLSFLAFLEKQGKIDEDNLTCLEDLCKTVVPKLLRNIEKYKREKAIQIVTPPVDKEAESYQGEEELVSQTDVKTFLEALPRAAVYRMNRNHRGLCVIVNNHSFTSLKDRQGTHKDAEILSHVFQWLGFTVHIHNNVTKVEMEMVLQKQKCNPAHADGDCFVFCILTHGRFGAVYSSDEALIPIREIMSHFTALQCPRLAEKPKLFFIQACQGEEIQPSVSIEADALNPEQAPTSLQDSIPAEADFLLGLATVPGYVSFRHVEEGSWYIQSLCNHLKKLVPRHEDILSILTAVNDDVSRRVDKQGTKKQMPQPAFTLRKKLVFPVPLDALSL", "assay": "yeast 384 well β-galactosidase reporter assay, Caspase10 activated with FADD", "type": "cell-based", "details": "Caspase10 activated with FADD in yeast, 384 well β-galactosidase activity assay", "from_the_text": "as §1, §2, §3"}},
  "data": [
    {"substance": "benzoyl-Valinyl-Alaninyl-Aspartyl-fluoromethylketone [zVAD-fmk]", "values": [
      {"measurement": "IC50", "setting": "[1]", "value": 4.11, "unit": "µM"},
      {"measurement": "effect on β-galactosidase activity / activation of the lacZ reporter gene", "setting": "[2]; 384 well yeast-based Caspase-dependent reporter gene assay", "value": "inhibited β-galactosidase activity in a dose-dependent fashion"},
      {"measurement": "IC50", "setting": "[2]; range over the yeast-based Caspase assays, 384 well format, read-out: concentration required for achieving 50% inhibition of β-galactosidase activity", "value": "1 to 10", "unit": "µM"},
      {"measurement": "IC50", "setting": "[3]", "value": 9.52, "unit": "µM"}
    ]}
  ]
}
